Patent publication US20090318468A1, “PYRAZOLE COMPOUNDS 436” (AstraZeneca AB, priority 2008, published 2009)
Several values for one entry are separate records, joined by “and”; a condition that tells them apart may be missing. Equal entries are not always repeated.

Key:
[1] = Protein binding by equilibrium dialysis (human); format: in vitro ADME; settings: 20 μM compound, 10% plasma, 37° C., read-out: % free (protein binding)
Method: (§1) Protein binding is determined by equilibrium dialysis. A 20 μM concentration of compound is dialyzed against 10% plasma at a temperature of 37° C. for 18 h. The resulting samples are analyzed using generic HPLC-UV methodology coupled with mass spectral peak identification. The reported K1 value is the first apparent association constant [proteináligand]/([protein][ligand]), all concentrations being measured in moles/liter (J. Med. Chem., 2006, 49(23), 6672-6682).
(§2) Protein binding can be measured in a high-throughput screen by equilibrium dialysis combined with liquid chromatography and mass spectrometry (Wan, H. and Rehngren, M., J. Chromatogr. A 2006, 1102, 125-134).

[2] = Protein binding by equilibrium dialysis (rat); format: in vitro ADME; settings: 20 μM compound, 10% plasma, 37° C., read-out: % free (protein binding)
Method: as §1, §2

[3] = biological target: T1, human cytochrome P450 (CYP) 2C9 (Homo sapiens, UniProt P11712); assay: Cytochrome P450 Inhibition Assay, CYP 2C9; format: in vitro ADME; settings: test compound 0.1-10 μM, substrate MFC
T1 construct: made in house; host or cells: yeast (microsomal fraction)
T1 sequence (P11712 whole entry): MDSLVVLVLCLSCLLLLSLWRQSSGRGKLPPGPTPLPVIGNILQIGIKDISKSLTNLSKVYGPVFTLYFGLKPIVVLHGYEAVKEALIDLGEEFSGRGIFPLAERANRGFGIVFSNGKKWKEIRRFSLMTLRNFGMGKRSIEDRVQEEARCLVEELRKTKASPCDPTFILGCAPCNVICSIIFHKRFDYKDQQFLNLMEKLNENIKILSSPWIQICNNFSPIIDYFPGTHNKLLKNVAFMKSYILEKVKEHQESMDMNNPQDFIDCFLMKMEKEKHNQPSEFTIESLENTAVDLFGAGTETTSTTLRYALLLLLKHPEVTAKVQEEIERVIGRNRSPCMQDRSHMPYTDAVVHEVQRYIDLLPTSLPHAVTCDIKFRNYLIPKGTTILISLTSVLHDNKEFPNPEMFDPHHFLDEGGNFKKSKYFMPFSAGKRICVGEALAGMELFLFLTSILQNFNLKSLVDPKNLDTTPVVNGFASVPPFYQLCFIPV
Method: Cytochrome P450 Inhibition Assay
Microsomal subcellular fractions prepared from Yeast cell lines expressing each human CYP isoform were used as an enzyme source in this assay. The activity of the 5 major human CYPs was determined from the biotransformation of a number of coumarin substrates to fluorescent metabolites, in the presence of NADPH. […] Stock solutions of each CYP, with its respective substrate, were prepared in phosphate buffer pH 7.4 (see Table 1) and 178 μl was added to the well of a black solid, flat bottom, 300 μl 96 well microtitre plate (Corning Costar). […] After pre-incubating at 37° C. for 5 min the reactions were started with addition of NADPH (20 μl, concentration shown in Table 1). The final solvent content in each incubation was <=2% (1% from the test compound and a maximum of 1% from the substrate). The appropriate solvent controls and substrate blanks were included in each experiment to assess control activity and identify any inherent fluorescence due to the test compounds. In addition, known inhibitors of each CYP were included as positive controls (see Table 3 for inhibitor concentrations and expected IC50 ranges). […] The plates were read on a fluorimeter (Spectrafluor Plus) at the appropriate excitation and emission wavelengths (listed in Table 2) and the percent activity, corrected for control, was plotted against the test compound concentration.

FGFR1 IIIc = biological target: T2, FGFR1 IIIc (Homo sapiens, UniProt P11362); assay: Cell FGFR1 (ECHO): inhibition of transiently expressed FGFR1 IIIc phosphorylation in Cos-1 cells; format: cell-based; settings: Cos-1 cells transiently expressing FGFR1 IIIc, 1 hour incubation; read-out: IC50 (inhibition of phosphorylated FGFR1)
T2 construct: expressed in transfected cells; host or cells: Cos-1
T2 sequence (P11362 22-822): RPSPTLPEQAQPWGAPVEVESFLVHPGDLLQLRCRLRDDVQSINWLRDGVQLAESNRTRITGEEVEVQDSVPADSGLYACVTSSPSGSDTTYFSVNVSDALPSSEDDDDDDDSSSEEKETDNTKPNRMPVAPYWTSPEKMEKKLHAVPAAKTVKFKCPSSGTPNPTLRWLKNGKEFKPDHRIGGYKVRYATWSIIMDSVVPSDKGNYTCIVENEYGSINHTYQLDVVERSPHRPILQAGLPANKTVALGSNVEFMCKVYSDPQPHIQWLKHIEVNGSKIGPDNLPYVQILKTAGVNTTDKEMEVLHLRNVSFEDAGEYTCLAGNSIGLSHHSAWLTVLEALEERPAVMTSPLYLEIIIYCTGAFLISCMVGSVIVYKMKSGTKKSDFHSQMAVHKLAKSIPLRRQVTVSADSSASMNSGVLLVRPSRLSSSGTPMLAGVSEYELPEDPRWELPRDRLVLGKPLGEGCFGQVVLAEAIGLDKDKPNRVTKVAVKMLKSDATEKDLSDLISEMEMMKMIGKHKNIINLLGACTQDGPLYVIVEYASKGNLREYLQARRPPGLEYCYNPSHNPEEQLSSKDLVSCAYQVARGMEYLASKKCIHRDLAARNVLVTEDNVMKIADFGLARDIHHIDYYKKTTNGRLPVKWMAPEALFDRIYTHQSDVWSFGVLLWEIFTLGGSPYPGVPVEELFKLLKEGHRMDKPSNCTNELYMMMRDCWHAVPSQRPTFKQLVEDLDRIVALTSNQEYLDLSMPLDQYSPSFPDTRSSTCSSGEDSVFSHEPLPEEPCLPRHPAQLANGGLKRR
Source text: Cell FGFR1 (ECHO)—Cell Based Inhibition of Transiently Expressed FGFR1 IIIc Phosphorylation via use of ECHO Technology (Measured using Phospho-Specific Primary and Fluorescent Secondary Antibodies).
This assay is designed to detect inhibitors of transiently expressed FGFR1 phosphorylation by antibody staining of fixed cells detected using ArrayScan technology.
Cos-1 cells were routinely passaged in DMEM (Gibco BRL, 41966) plus 3% foetal calf serum (FCS), 1% L-glutamine (Gibco BRL, 25030) to a confluence of 80%. To undertake the assay, Cos-1 cells were harvested at 90-95% confluence for cell transfection. For each 96-well plate, 24 μl Lipofectamine 2000 was added to 809 ul OptiMEM and incubated at room temperature for 5 minutes. For each 96 well plate, 20 ug 3′ FLAG tagged FGFR1/pcDNA3.1 (In-house clone15, MSD 4793) was diluted with OptiMEM to a total volume of 833 μl. Equal volumes of DNA and Lipofectamine 2000 were combined (DNA: Lipid=1:1.2 ratio) and incubated at room temperature for 20 minutes.
The harvested Cos-1 cells are counted using a coulter counter and diluted further with 1% FCS/DMEM to 2.5×10^5 cells/ml. For each 96-well, 8.33 ml cells were required. […]
Media was removed from the wells using vacuum aspiration; cells were fixed by adding 50 μl of 100% methanol to each well and incubated at room temperature for 20 minutes. […] The plates were read on an Arrayscan (Cellomics). […]

| fraction unbound at 18 h, 20 μM [1] | fraction unbound at 18 h, 20 μM [2] | IC50 [3] | IC50 (FGFR1 IIIc) | SMILES |
| --- | --- | --- | --- | --- |
| 0.0372 | 0.0091 | 3.76 µM | – | COc1cc(CCc2cc(NC(=O)c3ccc(N4CCN(C)[C@@H](C)C4)cc3)[nH]n2)cc(OC)c1 [Example 1a, (S)—N-(3-(3,5-Dimethoxyphenethyl)-1H-pyrazol-5-yl)-4-(3,4-dimethylpiperazin-1-yl)benzamide] |
| 0.0279 | 0.0062 | 9.12 µM | < 10 nM and 1.1 nM and 2.2 nM and 4.8 nM | COc1cc(CCc2cc(NC(=O)c3ccc(N4CCN(C)[C@H](C)C4)cc3)[nH]n2)cc(OC)c1 [Example 1b, (R)—N-(3-(3,5-Dimethoxyphenethyl)-1H-pyrazol-5-yl)-4-(3,4-dimethylpiperazin-1-yl)benzamide] |
